Values quoted from earlier work as cited in paper PMC3199145 (Future medicinal chemistry, 2011).
One block for each compound: values may come before it.

What was measured:
[1] = tested on: Trypanosoma brucei cathepsin B-like protease (TbCatB); settings: read-out: IC50 TbCatB
[2] = tested on: Trypanosoma cruzi; settings: drug concentration that completely clears parasite from T. cruzi infected macrophage cells; P Doyle & J Engel. Unpublished Data
[3] = tested on: Trypanosoma cruzi

IC50 [1]: 4 µM
Structure (SMILES): CN1CCN(C(=O)N[C@@H](Cc2ccccc2)C(=O)N[C@H](/C=C/S(=O)(=O)c2ccccc2)CCc2ccccc2)CC1 [Compound 1, K11777]
MTC Trypanosoma cruzi (minimal trypanocidal concentration) [2]: 8 µM | Efficacy in vivo against T. cruzi parasites [3]: effective

Structure (SMILES): C[C@@H](c1nc(-c2ccc(C#N)cc2)cs1)[C@](O)(Cn1cncn1)c1ccc(F)cc1F [Ravuconazole]
Efficacy in animal models ([3]; compared with posoconazole): more limited than posoconazole

Structure (SMILES): CC[C@@H]([C@H](C)O)n1ncn(-c2ccc(N3CCN(c4ccc(OC[C@@H]5CO[C@@](Cn6cncn6)(c6ccc(F)cc6F)C5)cc4)CC3)cc2)c1=O [posaconazole]
Cure of mice with acute and chronic Chagas disease ([3]; mice): able to cure mice
